≈ marks a conversion by molar mass, not a printed value.
Columns and labels:
[1] = Inhibition of bovine rotavirus RF infectivity following virus attachment to MA 104 cells; format: functional, cell-based, Bovine rotavirus strain RF; details: Rotavirus A
[2] = Antiviral activity against bovine rotavirus RF in MA 104 cells assessed as neutralization of virus in solution before cell attachment; format: functional, cell-based, Bovine rotavirus strain RF; details: Rotavirus A
[3] = system: Caco-2; assay: Cytotoxicity against human Caco-2 cells after 72 hrs; format: cell-based; details: Caco-2, 72 h
[4] = system: Caco-2; assay: Growth inhibition of human Caco-2 cells after 72 hrs; format: functional, cell-based; details: Caco-2, 72 h
[5] = Stimulation of proliferation of monkey MA104 cells at 30 ng/mL after 72 hrs relative to control; format: functional, Macaca mulatta
[6] = Antiviral activity against bovine rotavirus RF in MA104 cells; format: functional, cell-based, Bovine rotavirus strain RF; details: Rotavirus A

IC50 [1] [µg/mL] | IC50 [2] [µg/mL] | IC50 [4] [µg/mL] | IC50 [6] [µg/mL] | SMILES | IC50 [3] [µg/mL] | Activity [5] [%]
70 (≈ 179 µM) | 70 (≈ 179 µM) | 2500 (≈ 6390 µM) | – | O=C(Nc1ccn(C[C@@H]2O[C@H](CO)[C@@H](O)[C@H](F)C2=O)c(=O)n1)c1ccccc1 | 1500 (≈ 3830 µM) | 40
15 (≈ 56.1 µM) | 60 (≈ 225 µM) | 15 (≈ 56.1 µM) | 4 (≈ 15 µM) | Cc1cn([C@H]2C[C@H](N=[N+]=[N-])[C@@H](CO)O2)c(=O)[nH]c1=O [ZIDOVUDINE] | 15 (≈ 56.1 µM) | –
